# In patent publication US6465433B1, “Boronic ester and acid compounds, synthesis and uses” (Millennium Pharmaceuticals, Inc., priority 1994, dated 2002):
# Where a SMILES comes first, the peptide text is derived from it. The star is where a group is joined. Cbz = O=C(OCc1ccccc1)*
# Columns and labels:
# [1] = molecular target: SDS-activated 20S proteasome from rabbit muscle (Oryctolagus cuniculus, UniProt G1SU71+G1T4Q9); experiment: Kinetic assay: inhibition of the 20S proteasome; format: biochemical
# Method: (§1) P, AA^1, AA^2, AA^3, and Z^1 and Z^2 represent the structures present on formula (1) or (2). The protocol for the kinetic assay described in Tables II-V is as described in Rock et al., Cell 78:761-771 (1994). In these tables, Ki values are reported, which are dissociation constants for the equilibrium that is established when enzyme and inhibitor interact to form the enzyme:inhibitor complex. The reactions were performed using SDS-activated 20S proteasome from rabbit muscle. The substrate used was Suc-LLVY-AMC.
# NF-κB = experiment: Activation of NF-κB, electrophoretic mobility shift assay in TNF-α stimulated MG63 osteosarcoma cells; format: cell-based; settings: pretreatment for 1 hour, PRDII probe, FIG. 2
# Method: Compounds can be tested for their ability to inhibit the activation of NF-κB by means of a DNA binding assay (Palombella, et al., Cell 78:773 (1994)). Whole-cell extracts are prepared from untreated or TNF-α treated cells that have been pretreated for 1 hour with the test compound. The DNA binding activity of NF-κB is measured by an electrophoretic mobility shift assay using the PRDII probe from the human IFN-β gene promoter.
# This assay was performed as previously described (Palombella, et al. Cell, 78:773-785 (1994)). MG63 osteosarcoma cells were stimulated by treatment with TNF-α for the designated times. Whole cell extracts were prepared and analyzed by electrophoretic mobility shift assay using the PRDII probe from the human IFN-β gene promoter.
# [2] = molecular target: Human Pancreatic Chymotrypsin; experiment: Kinetic assay: inhibition of Human Pancreatic Chymotrypsin; format: biochemical; settings: Table V
# Cathepsin B = Cathepsin B (Homo sapiens, UniProt P07858); experiment: Kinetic assay: inhibition of Cathepsin B; format: biochemical; settings: Table IV
# Source text: [Worded in the source for another target; this target is reported under the same test.] as §1, with “Table II summarizes results from kinetic experiments that measured the inhibition of the 20S proteasome by compounds having the formula of compound (1) or (2). P,” for “P,”
# Human Leukocyte Elastase = molecular target: T1, Human Leukocyte Elastase (Homo sapiens, UniProt P08246); experiment: Kinetic assay: inhibition of Human Leukocyte Elastase; format: biochemical; settings: Table V
# T1 sequence (P08246 30-267): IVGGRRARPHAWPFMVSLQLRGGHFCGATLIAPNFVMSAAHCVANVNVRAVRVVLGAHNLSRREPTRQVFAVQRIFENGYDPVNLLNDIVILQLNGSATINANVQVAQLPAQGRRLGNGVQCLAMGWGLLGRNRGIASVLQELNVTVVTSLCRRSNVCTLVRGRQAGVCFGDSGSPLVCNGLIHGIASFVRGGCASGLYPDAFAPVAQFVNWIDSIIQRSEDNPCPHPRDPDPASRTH
# C2C12 cells = experiment: Inhibition of protein degradation in C2C12 cells; format: cell-based, mouse; settings: Mus musculus, C2C12; 35S-methionine labelled cells; percent decrease in TCA soluble radioactivity; media with 50% serum
# Method: One approach to testing drug candidates for their ability to inhibit the ATP-ubiquitin-dependent degradative process is to measure proteolysis in cultured cells (Rock, et al., Cell 78:761 (1994)). For example, the degradation of long-lived intracellular proteins can be measured in mouse C2C12 myoblast cells. Cells are incubated with ^35S-methionine for 48 hours to label long-lived proteins and then chased for 2 hours with medium containing unlabeled methionine. After the chase period, the cells are incubated for 4 hours in the presence or absence of the test compound. The amount of protein degradation in the cell can be measured by quantitating the trichloroacetic acid soluble radioactivity released from the pre-labeled proteins into the growth medium (an indicator of intracellular proteolysis).
# C2C12 cells (a mouse myoblast line) were labelled for 48 hrs with ^35S-methionine. The cells were then washed and preincubated for 2 hrs in the same media supplemented with 2 mM unlabelled methionine. The media was removed and replaced with a fresh aliquot of the preincubation media containing 50% serum, and a concentration of the compound to be tested. The media was then removed and made up to 10% TCA and centrifuged. The TCA soluble radioactivity was counted. Inhibition of proteolysis was calculated as the percent decrease in TCA soluble radioactivity.
# Cathepsin G = molecular target: T2, Cathepsin G (Homo sapiens, UniProt P08311); experiment: Kinetic assay: inhibition of Cathepsin G; format: biochemical; settings: Table V
# T2 sequence (P08311 21-244): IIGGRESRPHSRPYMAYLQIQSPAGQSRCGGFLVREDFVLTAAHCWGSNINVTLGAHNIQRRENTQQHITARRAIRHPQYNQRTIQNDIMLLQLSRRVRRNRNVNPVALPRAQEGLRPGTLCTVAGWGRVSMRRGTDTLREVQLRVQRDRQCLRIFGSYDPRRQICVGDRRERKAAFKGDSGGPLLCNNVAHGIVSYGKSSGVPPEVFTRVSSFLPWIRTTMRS
# mice = experiment: DTH response (contact sensitivity, ear swelling) in mice; format: in vivo, mouse; settings: oral, dose 3 mg/kg, ear swelling approximately 18 hours after challenge
# Source text: Compounds can also be tested for their ability to inhibit a delayed-type hypersensitivity response in mice. Contact hypersensitivity is a manifestation of an in vivo T-cell mediated immune response (Friedmann, Curr. Opinion Immunology, 1:690693 (1989)). Although the exact molecular mechanisms that regulate the cellular interactions and vascular changes involved in the response remain obscure, it is clear that the process is dependent upon the interplay of soluble mediators, adhesion molecules, and the cytokine network (Piguet, et al., J. Exp. Med. 173:673-679 (1991); Nickoloff, et al. J. Invest. Dermatol. 94:151S-157S (1990)). NF-κB, by mediating events such as the production of cytokines and the induction and utilization of cell-surface adhesion molecules, is a central and coordinating regulator involved in immune responses.
# Naive nice were sensitized by the application of 20 μL of a 0.5% (v/v) solution of 2,4-dinitrofluorobenzene in 4:1 acetone/olive oil to both of the rear limb footpads. This procedure is performed on two consecutive days, which are referred to as days 0 and 1.
# The efferent phase of the contact sensitivity response was elicited on day 5 by the application of 10 μL of a 0.2% (v/v) solution of 2,4-dinitrofluorobenzene in 4:1 acetone/olive oil to both sides of the left ear. The contralateral control ear was treated on both sides with 10 μL of vehicle only. The mice were lightly anaesthetized for this procedure by the intraperitoneal (i.p.) injection of a mixture of ketamine.(80 mg/kg, Henry Schein) and xylazine (16 mg/kg, Henry Schein). […]
# Approximately 18 hours after the challenge, ear swelling was determined by measuring both the control and the experimental ear using a Mitutoyo Digital micrometer. The absolute difference in thickness of the experimental (left) ears vs. the control (right) ears was determined for each treatment group. Efficacy was determined by comparing this difference in thickness to the difference calculated for the vehicle control group.
# [3] = Table II, SDS-activated 20S proteasome from rabbit muscle, substrate Suc-LLVY-AMC
"Ki [1, 3]",Ki ([1]; Table V),Ki (Human Leukocyte Elastase),Ki (Cathepsin G),Structure (SMILES),activity against the 20S proteasome [1],NF-κB binding activity (NF-κB),Ki ([1]; Table IV),Ki [2],Ki (Cathepsin B),IC50 (C2C12 cells),% Inhibition of the DTH response (mice)
–,–,–,–,"CSCCC(C=O)NC(=O)C(CC(C)C)NC(=O)C(CC(C)C)NC(C)=O [MG-102, Ac-L-Leu-L-Leu-L-Met-H, reference compound] (Ac-Leu-Leu-Met-aldehyde; configuration not given here)",inactive,did not inhibit,–,–,–,–,–
–,–,–,–,"CC(C)C[C@@H](C=O)NC(=O)[C@H](CC(C)C)NC(=O)[C@H](CC(C)C)NC(=O)OCc1ccccc1 [MG-132, Cbz-L-Leu-L-Leu-L-Leu-H] (Cbz-Leu-Leu-Leu-aldehyde)",–,inhibited,–,–,–,–,–
0.1 nM,0.1 nM,150 nM,33000 nM,CC(C)C[C@H](NC(=O)[C@H](Cc1cccc2ccccc12)NC(=O)OCc1ccccc1)B1O[C@@H]2C[C@@H]3C[C@@H](C3(C)C)[C@]2(C)O1 [MG-267],–,–,–,2300 nM,–,–,–
0.82 nM,0.82 nM,7000 nM,4800 nM,"CC(C)C[C@H](NC(=O)[C@H](Cc1ccccc1)NC(=O)N1CCOCC1)B(O)O [MG-309, N-(4-morpholine)carbonyl-L-phenylalanine-L-leucine boronic acid]",–,–,0.82 nM,–,132000 nM,210 nM,40%

Structure (SMILES),"Ki [1, 3]",Ki ([1]; Table V),Ki (Human Leukocyte Elastase),Ki (Cathepsin G),activity against the 20S proteasome [1],NF-κB binding activity (NF-κB),Ki ([1]; Table IV),Ki [2],Ki (Cathepsin B),IC50 (C2C12 cells),% Inhibition of the DTH response (mice)
CC(C)C[C@H](NC(=O)[C@H](CC(C)C)NC(=O)[C@H](CC(C)C)NC(=O)OCc1ccccc1)B(O)O [MG-262],0.035 nM,0.03 nM,15 nM,55 nM,–,–,0.035 nM,7 nM,6100 nM,280 nM,–
